Experimental data reported in US20260263567A1, “TUMOUR SENSITISATION TO CHECKPOINT INHIBITORS WITH REDOX STATUS MODIFIER” (CANCER RESEARCH TECHNOLOGY LIMITED, priority 2022, published 2026).
Read-outs that look alike come from different tables or passages of the source. Each block holds one molecule with its values, some of them ahead of it.

How the values were obtained:
metastatic melanoma [1] = test: Response of metastatic melanoma patient cohort (Riaz et al.) to nivolumab, stratified by tumour mtDNA mutation status; assay type: in vivo, human
Excerpt: Mutation calls and calculated heteroplasmy were used to assign patients to mtDNA wildtype, <50% VAF or >50% VAF groups.

metastatic melanoma [2] = conditions: of the 15 responders; cited from earlier work
[3] = test system: B78-D14 m.11,944^60% cells; test: Cell sensitivity to inhibitors (IC50 from final confluency, IncuCyte); assay type: cell-based, mouse; conditions: for IC50: Mus musculus
Experimental: (§1) Cells were plated in a 96-well plate at 500 cells/well in 200 μL of cell culture media. Plates were incubated overnight at 37° C. and 5% CO2. The following day, media was replaced with 0-100 mM 2-DG in quadruplicate. Plates were imaged once every 4 hrs on the IncuCyte Zoom (Essen Bioscience) for 5 days. Final confluency measurements were calculated using the system algorithm and the IC50 was determined by GraphPad Prism.

[4] = test system: B78-D14 m.12,436^60% cells; test: as above; assay type: cell-based, mouse; conditions: for IC50: Mus musculus
Experimental: as §1

[5] = test system: B78-D14 m.12,436^80% cells; test: as above; assay type: cell-based, mouse; conditions: for IC50: Mus musculus
Experimental: as §1

B78-D14 wild-type cells = test: as above; assay type: cell-based; conditions: Mus musculus
Experimental: as §1

Hcmel12 tumours = test: Manipulation of tumour-associated neutrophils with G-CSF or anti-Ly6G, with or without anti-PD1, in Hcmel12 tumours; assay type: in vivo, mouse
Experimental: To determine if neutrophil depletions were necessary for observed sensitivity to ICB, the inventors chose to manipulate the proportion of tumour-associated neutrophils using G-CSF and anti-Ly6G treatments. Hcmel12 wild-type, m.12,436^83% and cytoLbNOX cells were allografted into C57BL/6 mice and were put on G-CSF or anti-Ly6G treatment with or without antiPD1 (FIG. 43A).
For immunotherapy experiments, mice were put on a dosing regimen of 200 μg of anti-PD1 given intraperitoneally twice a week. The first dose was given 7 days post-injection and all mice were sacrificed at 21 or 13 days post-injection for B78 or HcMel12 cells respectively. Either 5 μg mouse recombinant G-CSF (Stemcell) or 100 μg anti-mouse Ly6G—clone 1A8 (2B Scientific) was given intraperitoneally every 2 days post-engraftment to mice for neutrophil depletion experiments.

[6] = m.12,436^60% cells, read-out: IC50
[7] = m.12,436^80% cells, read-out: IC50
[8] = wild-type cells, read-out: IC50
[9] = printed as mt.11944^80%, read-out: IC50

Molecule: nivolumab
tumours responding (metastatic melanoma [1]; <50% VAF tumours): 17% | tumours responding (metastatic melanoma [1]; >50% VAF tumours): 40% | likelihood to respond, >50% VAF tumours versus mtDNA wild-type or low VAF tumours (metastatic melanoma [1]; Example 1 analysis): 2.5 × | rate of response of >50% VAF cancers versus wild-type or <50% VAF cancer (metastatic melanoma [1]; Example 2 analysis): 2.6 fold | cohort response rate, partial or complete responses (metastatic melanoma [1]; mtDNA mutation status-naive cohort, 70 patients): 22% | complete responders categorised as >50% VAF (metastatic melanoma [1]; out of the 3 complete responders): 2 | complete responses (metastatic melanoma [2]): 3 | partial responses (metastatic melanoma [2]): 12

IC50 ([3]; m.11,944^60% cells, read-out: IC50): 1040 µM | IC50 [4, 6]: 810 µM | IC50 [5, 7]: 460 µM | IC50 (B78-D14 wild-type cells; [8]): 1620 µM
Molecule: O=CC[C@@H](O)[C@H](O)[C@H](O)CO [2-DG, 2-deoxyglucose]
sensitivity compared with wild-type cells ([3]; m.11,944^60% cells): more sensitive | sensitivity compared with wild-type cells ([4]; m.12,436^60% cells): more sensitive | sensitivity compared with wild-type cells ([5]; m.12,436^80% cells): further enhanced

Molecule: C=C(C)[C@H]1Cc2c(ccc3c2O[C@@H]2COc4cc(OC)c(OC)cc4[C@@H]2C3=O)O1 [rotenone]
IC50 [3]: 0.205 ± 0.033 µM | sensitivity compared with wild-type cells ([3]; m.11,944^60% cells): not differentially sensitive | IC50 [4]: 0.235 ± 0.035 µM | sensitivity compared with wild-type cells ([4]; m.12,436^60% cells): not differentially sensitive | IC50 [5]: 0.493 ± 0.108 µM | sensitivity compared with wild-type cells ([5]; m.12,436^80% cells): resistance compared to wild type | IC50 (B78-D14 wild-type cells): 0.236 ± 0.026 µM

IC50 [3, 9]: 22900 ± 700 µM | IC50 [4, 6]: 16600 ± 2430 µM | IC50 [5, 7]: 5890 ± 710 µM | IC50 (B78-D14 wild-type cells; [8]): 26300 ± 1490 µM
Molecule: CN(C)C(=N)N=C(N)N [metformin]
sensitivity compared with wild-type cells ([3]; m.11,944^60% cells): enhanced sensitivity | sensitivity compared with wild-type cells ([4]; m.12,436^60% cells): enhanced sensitivity | sensitivity compared with wild-type cells ([5]; m.12,436^80% cells): enhanced sensitivity

Molecule: CC[C@H]1/C=C/C=C/C[C@@H](C)[C@H](O)[C@@](C)(O)C(=O)[C@@H](C)[C@H](O)[C@@H](C)C(=O)[C@@H](C)[C@H](O)[C@@H](C)/C=C/C(=O)O[C@@H]2[C@H](C)[C@H](CC1)O[C@]1(CC[C@H](C)[C@H](C[C@@H](C)O)O1)[C@H]2C [oligomycin]
IC50 [3, 9]: 13.5 ± 3.32 µM | sensitivity compared with wild-type cells ([3]; m.11,944^60% cells): None of the mutants demonstrated differential sensitivity | IC50 ([4]; mt.12436^60% cells, read-out: IC50): 13.5 ± 3.32 µM | sensitivity compared with wild-type cells ([4]; m.12,436^60% cells): None of the mutants demonstrated differential sensitivity | IC50 ([5]; mt.12436^80% cells, read-out: IC50): 7.75 ± 0.56 µM | sensitivity compared with wild-type cells ([5]; m.12,436^80% cells): None of the mutants demonstrated differential sensitivity | IC50 (B78-D14 wild-type cells; [8]): 13.8 ± 3.8 µM

B1: G-CSF: mouse recombinant G-CSF (Stemcell) (protein, UniProt P09920 31-208, looked up)
Granulocyte …: VPLVTVSALPPSLPLPRSFLLKSLEQVRKIQASGSVLLEQLCATYKLCHPEELVLLGHSLGIPKASLSGCSSQALQQTQCLSQLHSGLCLYQGLLQALSGISPALAPTLDLLQLDVANFATTIWQQMENLGVAPTVQPTQSAMPAFTSAFQRRAGGVLAISYLQGFLETARLALHHLA
tumour-associated neutrophil proportions (Hcmel12 tumours; across genotypes): increases | sensitivity of tumours to anti-PD1 (Hcmel12 tumours; m.12,436^83% and cytoLbNOX tumours, G-CSF plus anti-PD1): abolished sensitivity | tumour weight versus untreated tumours at the same end-point (Hcmel12 tumours; without anti-PD1): did not affect tumour weight
